Data as given in patent publication US20030157062A1, “Method for exterminating termites” (priority 2000, published 2003).

System: Coptotemes formosanus
Assay: Indoor testing of termiticidal effect of treated soil (Japan Wood Preserving Association standard number 13, 1992)
Format: in vivo
Procedure: The following tests (test numbers 1 to 16) were carried out based on testing methods and qualitative standards (I) for termiticidal effects of termiticide for soil treating (Japan Wood Preserving Association standard number 13, 1992). In the tests using entomopathogenic nematodes, operation of diffusive volatilization was not carried out.
The bottom portions of these two glass bottles are connected with a glass tube (3) of 15 mm in diameter and 100 mm in length.
In one of the glass bottles of the testing container, about 60 g of a non-treated soil (5) having an adjusted moisture content of about 25% is placed, and in the other glass bottle, about 3 g of Japanese red pine wood blocks are placed, and in the central 50 mm portion of the glass tube, a treated soil for testing (6) is placed.
In the glass bottle containing a non-treated soil, Coptotemes formosanus taken out from a nest was placed, and the upper portions of the glass bottles were covered with aluminum foil. Cumulative mortality rates after 0, 3, 5, 7, 10 and 14 days, respectively, were examined. […]

[1] = 10 ppm of insect-growth regulator singly in treated soil, 0 days elapsed
[2] = 10 ppm of insect-growth regulator singly in treated soil, 3 days elapsed
[3] = 10 ppm of insect-growth regulator singly in treated soil, 5 days elapsed
[4] = 10 ppm of insect-growth regulator singly in treated soil, 7 days elapsed
[5] = 10 ppm of insect-growth regulator singly in treated soil, 10 days elapsed
[6] = 10 ppm of insect-growth regulator singly in treated soil, 14 days elapsed
[7] = 20 ppm of insect-growth regulator singly in treated soil, 0 days elapsed
[8] = 20 ppm of insect-growth regulator singly in treated soil, 3 days elapsed
[9] = 20 ppm of insect-growth regulator singly in treated soil, 5 days elapsed
[10] = 20 ppm of insect-growth regulator singly in treated soil, 7 days elapsed
[11] = 20 ppm of insect-growth regulator singly in treated soil, 10 days elapsed
[12] = 20 ppm of insect-growth regulator singly in treated soil, 14 days elapsed
[13] = 50 ppm of insect-growth regulator singly in treated soil, 0 days elapsed
[14] = 50 ppm of insect-growth regulator singly in treated soil, 3 days elapsed
[15] = 50 ppm of insect-growth regulator singly in treated soil, 5 days elapsed
[16] = 50 ppm of insect-growth regulator singly in treated soil, 7 days elapsed
[17] = 50 ppm of insect-growth regulator singly in treated soil, 10 days elapsed
[18] = 50 ppm of insect-growth regulator singly in treated soil, 14 days elapsed

Row | Structure (SMILES) | Cumulative mortality rate (%) after a lapse of days [1] [%] | Cumulative mortality rate (%) after a lapse of days [2] [%] | Cumulative mortality rate (%) after a lapse of days [3] [%] | Cumulative mortality rate (%) after a lapse of days [4] [%] | Cumulative mortality rate (%) after a lapse of days [5] [%] | Cumulative mortality rate (%) after a lapse of days [6] [%] | Cumulative mortality rate (%) after a lapse of days [7] [%] | Cumulative mortality rate (%) after a lapse of days [8] [%] | Cumulative mortality rate (%) after a lapse of days [9] [%] | Cumulative mortality rate (%) after a lapse of days [10] [%] | Cumulative mortality rate (%) after a lapse of days [11] [%] | Cumulative mortality rate (%) after a lapse of days [12] [%] | Cumulative mortality rate (%) after a lapse of days [13] [%] | Cumulative mortality rate (%) after a lapse of days [14] [%] | Cumulative mortality rate (%) after a lapse of days [15] [%] | Cumulative mortality rate (%) after a lapse of days [16] [%] | Cumulative mortality rate (%) after a lapse of days [17] [%] | Cumulative mortality rate (%) after a lapse of days [18] [%]
1 | O=C(NC(=O)c1c(F)cccc1F)Nc1ccc(Cl)cc1 [Diflubenzuron, N-[[(4-chlorophenyl)amino]carbonyl]-2,6-difluorobenzamide] | 0 | 10 | 15 | 20 | 40 | 50 | 0 | 25 | 35 | 40 | 50 | 60 | 0 | 35 | 45 | 50 | 55 | 70
2 | O=C(NC(=O)c1c(F)cccc1F)Nc1cc(Cl)c(F)c(Cl)c1F [Teflubenzuron, N-[[(3,5-dichloro-2,4-difluorophenyl)amino]carbonyl]-2,6-difluorobenzamide] | 0 | 20 | 25 | 30 | 30 | 55 | 0 | 30 | 45 | 50 | 60 | 70 | 0 | 40 | 60 | 70 | 80 | 90
3 | O=C(NC(=O)c1c(F)cccc1F)Nc1ccc(OC(F)(F)C(F)OC(F)(F)F)c(Cl)c1 (centres unmarked) [novaluron, N-[[[3-chloro-4-(1,1,2-trifluoro-2-trifluoromethoxyethoxy)phenyl]amino]carbonyl]-2,6-difluorobenzamide] | 0 | 20 | 30 | 35 | 40 | 80 | 0 | 30 | 45 | 100 |  |  | 0 | 40 | 60 | 100 |  | 
